The numbers were not newly measured in patent publication US20260199417A1, “OPHTHALMIC FORMULATION FOR TOPICAL USE CONTAINING HELENALIN, 11A,13-DIHYDRO HELENALIN AND FLAVONOIDS FROM ARNICA MONTANA EXTRACT AND SODIUM HYALURONATE, AND USE THEREOF BY HUMANS TO TREAT DRY EYE SYNDROME” (CENTRO DE RETINA MÉDICA Y QUIRÚRGICA, S.C., priority 2022, published 2026), which cites them from elsewhere.

This series has as its system NF kappa-B. Conditions: T cells, B cells, and epithelial cells.

`C[C@@H]1C[C@H]2OC(=O)[C@@H](C)[C@H]2[C@H](O)[C@]2(C)C(=O)C=C[C@@H]12` [11-α, 13-dihydrohelenalin]: the “Activation of NF kappa-B” value was “inhibited”.
In the case of `C=C1C(=O)O[C@@H]2C[C@@H](C)[C@@H]3C=CC(=O)[C@@]3(C)[C@@H](O)[C@H]12` [helenalin], the “Activation of NF kappa-B” value is “inhibited”.
